Experimental findings from patent US9567341B2, “Pyrrolopyrimidine derivatives as NR2B NMDA receptor antagonists” (Rugen Holdings (Cayman) Limited, priority 2014, dated 2017) are described below.

pIC50: −log10 of the molar value. Read-outs that look alike come from different tables or passages of the source. A value given as a limit tells only on which side of the number the result lay.

For series [1], the target named is human NR1/NR2B (Homo sapiens (Human), UniProt Q13224). Description: NR2B antagonist activity (Fluo-4 calcium influx assay). In kind it is cell-based.
The target of series [2] is CYP2D6 (Homo sapiens (Human), UniProt P10635). The series is described as follows: CYP P450 enzyme inhibition in pooled human liver microsome. The conditions noted are these: read-out: CYP2D6 IC50, dextromethorphan 5 μM. A general note: Liver microsomes are a subcellular fraction often used to study metabolism.
In series [3] the target is human NR1/NR2A (Homo sapiens (Human), UniProt Q05586+Q12879). Description: NR2A activity (Fluo-4 calcium influx assay). In kind it is cell-based.
The target of series [4] is hERG channel (Homo sapiens (Human), UniProt Q12809). As to conditions: pH 7.35.
Series [5] concerns Rats. The series is described as follows: Electroconvulsive threshold (ECT) test. In kind it is in vivo, rat. As to conditions: p.o. 60 minutes before ECS, theophylline 128 mg/kg, diazepam 16 mg/kg.
Series [6] has as its system Male mice (strain NLMN). Description: Forced swim test. The conditions noted are these: intraperitoneal, imipramine 32 mg/kg IP. In kind it is in vivo, mouse.
Where [7] appears, read: HEK293 cells stably expressing human NR1/NR2B, glutamate 100 μM, glycine 50 μM, read-out: NR2B IC50.
The mark [8] stands for this setting: as printed in the CYP2D6 table, read-out: NR2B IC50.
[9] abbreviates: HEK293 cells stably expressing human NR1/NR2A, glutamate 100 μM, glycine 50 μM, read-out: NR2A IC50.

Chain of hERG channel (Q12809 whole entry): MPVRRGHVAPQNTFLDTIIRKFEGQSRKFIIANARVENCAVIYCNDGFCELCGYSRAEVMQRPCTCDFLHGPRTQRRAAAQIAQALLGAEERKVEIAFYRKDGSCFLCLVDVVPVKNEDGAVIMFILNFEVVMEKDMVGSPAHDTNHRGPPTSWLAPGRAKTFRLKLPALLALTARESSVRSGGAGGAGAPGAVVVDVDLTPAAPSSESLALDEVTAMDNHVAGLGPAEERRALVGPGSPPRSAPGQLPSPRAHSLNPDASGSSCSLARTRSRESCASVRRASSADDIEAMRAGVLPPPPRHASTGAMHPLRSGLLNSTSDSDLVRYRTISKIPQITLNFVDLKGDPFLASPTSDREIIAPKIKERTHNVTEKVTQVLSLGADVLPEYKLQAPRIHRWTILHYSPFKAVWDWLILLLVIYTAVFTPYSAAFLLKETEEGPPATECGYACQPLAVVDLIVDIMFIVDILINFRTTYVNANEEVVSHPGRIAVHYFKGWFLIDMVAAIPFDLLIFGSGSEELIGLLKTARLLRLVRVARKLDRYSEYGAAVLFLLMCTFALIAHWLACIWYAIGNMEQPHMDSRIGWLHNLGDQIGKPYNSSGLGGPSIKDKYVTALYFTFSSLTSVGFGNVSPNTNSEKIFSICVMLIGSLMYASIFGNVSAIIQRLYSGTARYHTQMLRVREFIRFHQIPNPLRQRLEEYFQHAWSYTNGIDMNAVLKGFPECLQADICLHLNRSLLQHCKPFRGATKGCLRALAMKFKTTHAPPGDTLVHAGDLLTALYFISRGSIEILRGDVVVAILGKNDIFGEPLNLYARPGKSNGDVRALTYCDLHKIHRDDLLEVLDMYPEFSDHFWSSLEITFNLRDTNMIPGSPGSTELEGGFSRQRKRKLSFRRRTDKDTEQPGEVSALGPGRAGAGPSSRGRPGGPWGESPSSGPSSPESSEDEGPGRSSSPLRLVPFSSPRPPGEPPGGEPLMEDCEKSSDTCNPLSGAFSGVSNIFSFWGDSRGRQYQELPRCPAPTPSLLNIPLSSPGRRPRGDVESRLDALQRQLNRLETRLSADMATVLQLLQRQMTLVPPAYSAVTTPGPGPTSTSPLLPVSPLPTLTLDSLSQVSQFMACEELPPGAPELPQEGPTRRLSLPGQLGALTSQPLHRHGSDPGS
Chain of CYP2D6 (P10635 whole entry): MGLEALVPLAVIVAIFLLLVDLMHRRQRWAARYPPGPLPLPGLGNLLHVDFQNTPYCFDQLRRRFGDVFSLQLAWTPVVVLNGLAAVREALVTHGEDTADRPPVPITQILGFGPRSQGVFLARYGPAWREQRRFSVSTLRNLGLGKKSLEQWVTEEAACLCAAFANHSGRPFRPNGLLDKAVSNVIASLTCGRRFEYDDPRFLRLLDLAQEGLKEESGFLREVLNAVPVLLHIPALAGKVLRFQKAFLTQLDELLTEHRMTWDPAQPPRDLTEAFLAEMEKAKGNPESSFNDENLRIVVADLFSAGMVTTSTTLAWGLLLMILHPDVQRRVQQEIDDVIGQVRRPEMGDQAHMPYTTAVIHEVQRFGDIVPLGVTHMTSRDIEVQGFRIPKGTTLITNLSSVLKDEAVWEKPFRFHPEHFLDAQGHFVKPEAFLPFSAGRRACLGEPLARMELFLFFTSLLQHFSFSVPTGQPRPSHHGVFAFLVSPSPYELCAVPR
Chain of human NR1/NR2A (Q12879 23-1464, other chains not shown): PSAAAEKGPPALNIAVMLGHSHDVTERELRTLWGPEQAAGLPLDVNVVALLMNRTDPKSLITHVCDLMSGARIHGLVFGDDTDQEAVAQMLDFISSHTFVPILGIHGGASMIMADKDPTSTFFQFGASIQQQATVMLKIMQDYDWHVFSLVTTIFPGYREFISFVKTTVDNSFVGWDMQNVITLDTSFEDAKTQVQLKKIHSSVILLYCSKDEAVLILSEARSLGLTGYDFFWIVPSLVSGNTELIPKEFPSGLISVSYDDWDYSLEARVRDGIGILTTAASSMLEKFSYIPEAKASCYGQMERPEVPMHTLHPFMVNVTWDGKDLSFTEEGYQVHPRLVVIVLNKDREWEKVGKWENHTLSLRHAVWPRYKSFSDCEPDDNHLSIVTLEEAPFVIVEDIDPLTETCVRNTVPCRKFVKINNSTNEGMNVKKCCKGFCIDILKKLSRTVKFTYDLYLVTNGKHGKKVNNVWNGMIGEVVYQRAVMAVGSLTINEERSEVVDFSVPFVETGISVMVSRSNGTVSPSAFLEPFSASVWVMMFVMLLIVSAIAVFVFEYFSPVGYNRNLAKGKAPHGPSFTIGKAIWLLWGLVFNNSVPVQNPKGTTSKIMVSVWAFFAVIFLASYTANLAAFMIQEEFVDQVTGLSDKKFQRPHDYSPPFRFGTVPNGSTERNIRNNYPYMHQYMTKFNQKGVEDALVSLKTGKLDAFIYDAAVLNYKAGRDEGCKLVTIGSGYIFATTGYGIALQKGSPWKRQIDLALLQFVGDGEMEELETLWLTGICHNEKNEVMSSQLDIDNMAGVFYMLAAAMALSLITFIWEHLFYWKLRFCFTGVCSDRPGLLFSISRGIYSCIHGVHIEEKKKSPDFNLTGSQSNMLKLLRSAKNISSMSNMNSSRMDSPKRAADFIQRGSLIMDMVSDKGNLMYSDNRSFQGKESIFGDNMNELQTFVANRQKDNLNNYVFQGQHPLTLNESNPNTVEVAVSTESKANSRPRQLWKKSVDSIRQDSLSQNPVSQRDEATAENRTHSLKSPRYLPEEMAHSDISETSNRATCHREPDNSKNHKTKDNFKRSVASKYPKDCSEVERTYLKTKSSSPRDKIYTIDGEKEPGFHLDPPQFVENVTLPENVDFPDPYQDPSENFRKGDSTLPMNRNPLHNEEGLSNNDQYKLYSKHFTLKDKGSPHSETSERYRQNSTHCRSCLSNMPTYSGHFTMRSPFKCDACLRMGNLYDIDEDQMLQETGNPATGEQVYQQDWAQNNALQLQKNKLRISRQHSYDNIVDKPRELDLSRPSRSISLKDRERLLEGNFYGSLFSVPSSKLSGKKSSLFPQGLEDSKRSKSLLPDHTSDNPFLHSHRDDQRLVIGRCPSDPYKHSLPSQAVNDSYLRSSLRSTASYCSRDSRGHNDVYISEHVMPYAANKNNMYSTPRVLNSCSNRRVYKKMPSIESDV
Chain of human NR1/NR2B (Q13224 27-1484, other chains not shown): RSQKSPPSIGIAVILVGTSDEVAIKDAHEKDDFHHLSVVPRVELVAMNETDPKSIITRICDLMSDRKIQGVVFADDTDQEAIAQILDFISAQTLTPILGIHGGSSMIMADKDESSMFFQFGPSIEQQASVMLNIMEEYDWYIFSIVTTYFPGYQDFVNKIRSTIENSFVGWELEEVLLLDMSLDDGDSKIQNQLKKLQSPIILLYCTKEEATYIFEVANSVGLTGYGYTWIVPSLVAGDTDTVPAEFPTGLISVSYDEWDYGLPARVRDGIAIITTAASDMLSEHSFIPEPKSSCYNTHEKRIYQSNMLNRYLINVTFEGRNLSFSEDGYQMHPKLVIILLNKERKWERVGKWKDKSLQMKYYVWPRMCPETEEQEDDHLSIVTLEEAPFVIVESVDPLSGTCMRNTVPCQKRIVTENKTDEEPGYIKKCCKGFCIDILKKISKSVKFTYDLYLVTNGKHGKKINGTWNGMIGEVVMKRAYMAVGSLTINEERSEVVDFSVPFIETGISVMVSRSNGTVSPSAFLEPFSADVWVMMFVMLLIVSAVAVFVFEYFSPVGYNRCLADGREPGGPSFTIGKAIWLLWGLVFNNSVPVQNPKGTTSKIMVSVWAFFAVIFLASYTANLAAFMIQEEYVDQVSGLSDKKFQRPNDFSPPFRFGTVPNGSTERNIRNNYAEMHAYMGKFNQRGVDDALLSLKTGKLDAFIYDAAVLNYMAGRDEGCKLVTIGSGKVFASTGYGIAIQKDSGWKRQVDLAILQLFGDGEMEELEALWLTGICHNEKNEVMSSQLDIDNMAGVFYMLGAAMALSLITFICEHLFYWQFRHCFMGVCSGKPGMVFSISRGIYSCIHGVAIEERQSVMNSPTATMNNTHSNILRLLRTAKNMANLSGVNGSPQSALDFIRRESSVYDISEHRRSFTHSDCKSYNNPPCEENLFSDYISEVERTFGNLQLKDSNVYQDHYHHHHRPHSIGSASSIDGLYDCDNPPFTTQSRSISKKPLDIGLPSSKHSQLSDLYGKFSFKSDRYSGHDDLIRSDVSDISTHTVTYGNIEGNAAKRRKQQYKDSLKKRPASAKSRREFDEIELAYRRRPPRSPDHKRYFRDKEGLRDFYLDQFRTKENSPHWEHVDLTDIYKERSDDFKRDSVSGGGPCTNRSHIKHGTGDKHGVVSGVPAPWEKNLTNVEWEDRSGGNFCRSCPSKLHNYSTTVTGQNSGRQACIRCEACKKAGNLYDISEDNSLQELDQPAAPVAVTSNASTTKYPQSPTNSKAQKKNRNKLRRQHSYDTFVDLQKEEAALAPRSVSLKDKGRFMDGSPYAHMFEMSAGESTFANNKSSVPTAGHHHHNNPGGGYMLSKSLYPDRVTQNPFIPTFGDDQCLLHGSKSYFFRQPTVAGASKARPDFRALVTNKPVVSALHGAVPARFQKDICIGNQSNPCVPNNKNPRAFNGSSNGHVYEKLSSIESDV

With `FC(F)(F)c1ccc(C(F)(F)CN2CCC(Nc3ncnc4[nH]ccc34)CC2)cc1` [Compound C-178, N-(1-(2,2-difluoro-2-(4-(trifluoromethyl)phenyl)ethyl)piperidin-4-yl)-7H-pyrrolo-[2,3-d]pyrimidin-4-amine], the negative logarithm of the IC50 (pIC50) (in general, −log10 of the IC50, conventionally taken in molar units) in series [1] (setting [7]) is 7.19; in series [1] (setting [8]), 7.19; in series [2], 5.17; in series [3] (setting [9]), below 5.00.

Turning to `FC(F)(F)c1ccc(C(F)(F)CN2CCC(Nc3ncnc4[nH]ccc34)CC2)nc1` [Compound C-5, N-(1-(2,2-difluoro-2-(5-(trifluoromethyl)pyridin-2-yl)ethyl)piperidin-4-yl)-7H-pyrrolo[2,3-d]pyrimidin-4-amine], the pIC50 was 7.52 in series [1] (setting [7]); 7.52 in series [1] (setting [8]); 7.52 in series [1] (as printed in the hERG table, read-out: hNR2B IC50); 4.48 in series [2]; 5.02 in series [4].

For `CN1C(=O)CN=C(c2ccccc2)c2cc(Cl)ccc21` [diazepam], the “pro-/anticonvulsant activity (electroconvulsive threshold)” value in series [5] is “expected pro- and anticonvulsant activities”.

On to `Fc1cc(Cl)cnc1C(F)(F)CN1CCC(Nc2ncnc3[nH]ccc23)CC1` [Compound C-16, N-(1-(2-(5-chloro-3-fluoropyridin-2-yl)-2,2-difluoroethyl)piperidin-4-yl)-7H-pyrrolo[2,3-d]pyrimidin-4-amine], for which the pIC50 in series [1] (read-out: NR2B IC50) is 7.33; in series [3], below 5.00.

In the case of `FC(F)(CN1CCC(Nc2ncnc3[nH]ccc23)CC1)c1ccc(Cl)cc1` [Compound C-176, N-(1-(2-(4-chlorophenyl)-2,2-difluoroethyl)piperidin-4-yl)-7H-pyrrolo[2,3-d]pyrimidin-4-amine], the negative logarithm of the IC50 (pIC50) was 7.59 in series [1] (read-out: NR2B IC50) and below 5.00 in series [3].

Regarding `FC(F)c1ccc(C(F)(F)CN2CCC(Nc3ncnc4[nH]ccc34)CC2)nc1` [Compound C-6, N-(1-(2-(5-(difluoromethyl)pyridin-2-yl)-2,2-difluoroethyl)piperidin-4-yl)-7H-pyrrolo[2,3-d]pyrimidin-4-amine], the negative logarithm of the IC50 (pIC50) in series [1] (setting [7]) is 7.51.

With `Cc1ccc(C(F)(F)CN2CCC(N(C)c3ncnc4[nH]ccc34)CC2)nc1` [Compound C-47, N-(1-(2,2-difluoro-2-(5-methylpyridin-2-yl)ethyl)piperidin-4-yl)-N-methyl-7H-pyrrolo[2,3-d]pyrimidin-4-amine], the pIC50 was 6.85 in series [1] (read-out: NR2B IC50) and below 5.00 in series [3].

Regarding `Cc1cnc(C(F)(F)CN2CCC(Nc3ncnc4[nH]ccc34)CC2)c(F)c1` [Compound C-17, N-(1-(2,2-difluoro-2-(3-fluoro-5-methylpyridin-2-yl)ethyl)piperidin-4-yl)-7H-pyrrolo[2,3-d]pyrimidin-4-amine], the negative logarithm of the IC50 (pIC50) in series [1] (read-out: NR2B IC50) was 7.36; in series [3], below 5.00.

Consider `FC(F)(F)Oc1ccc(C(F)(F)CN2CCC(Nc3ncnc4[nH]ccc34)CC2)nc1` [Compound C-11, N-(1-(2,2-difluoro-2-(5-(trifluoromethoxy)pyridin-2-yl)ethyl)piperidin-4-yl)-7H-pyrrolo[2,3-d]pyrimidin-4-amine], for which the negative-log IC50 (pIC50) in series [1] (setting [7]) is 7.37.

`Cc1ccc(C(F)(F)CN2CCC(Nc3ncnc4[nH]ccc34)CC2)cc1` [Compound C-177, N-(1-(2,2-difluoro-2-p-tolylethyl)piperidin-4-yl)-7H-pyrrolo[2,3-d]-pyrimidin-4-amine]: the negative-log IC50 (pIC50) was 7.57 in series [1] (read-out: NR2B IC50) and below 5.00 in series [3].

Take `Fc1ccc(C(F)(F)CN2CCC(Nc3ncnc4[nH]ccc34)CC2)cc1` [Compound C-175, N-(1-(2,2-difluoro-2-(4-fluorophenyl)ethyl)piperidin-4-yl)-7H-pyrrolo[2,3-d]-pyrimidin-4-amine]: the pIC50 in series [1] (read-out: NR2B IC50) is 7.66; in series [1] (read-out: hNR2B IC50), 7.66; in series [2], 5.64; in series [3] it was below 5.00; in series [4] it was 5.35.

Turning to `Cn1c(=O)c2[nH]cnc2n(C)c1=O` [theophylline], the “pro-/anticonvulsant activity (electroconvulsive threshold)” value in series [5] was “expected pro- and anticonvulsant activities”.

Turning to `Cc1ccc(C(F)(F)CN2CCC(Nc3ncnc4[nH]ccc34)CC2)nc1` [Compound C-4, N-(1-(2,2-difluoro-2-(5-methylpyridin-2-yl)ethyl)piperidin-4-yl)-7H-pyrrolo[2,3-d]pyrimidin-4-amine], the pIC50 in series [1] (read-out: NR2B IC50) was 7.46; in series [1] (read-out: hNR2B IC50) it was 7.46; in series [3] it was below 5.00; in series [4], 4.94.

Consider `FC(F)(CN1CCC(Nc2ncnc3[nH]ccc23)CC1)c1ccc(Cl)cn1` [Compound C-3, N-(1-(2-(5-chloropyridin-2-yl)-2,2-difluoroethyl)piperidin-4-yl)-7H-pyrrolo-[2,3-d]pyrimidin-4-amine], for which the figures for the negative-log IC50 (pIC50) in series [2], in series [3] and in series [4] were 4.92, below 5.00 and 5.15, respectively.

For the compound `FCc1ccc(C(F)(F)CN2CCC(Nc3ncnc4[nH]ccc34)CC2)nc1` [Compound C-7, N-(1-(2,2-difluoro-2-(5-(fluoromethyl)pyridin-2-yl)ethyl)piperidin-4-yl)-7H-pyrrolo[2,3-d]pyrimidin-4-amine], the results for the pIC50 in series [1] (read-out: NR2B IC50) and in series [3] were 7.85 and below 5.00, respectively.

For `CN(C)CCCN1c2ccccc2CCc2ccccc21` [imipramine], the “antidepressant activity (immobility time)” value in series [6] is “expected antidepressant activity”.

Consider `FC(F)c1ccc(C(F)(F)CN2CCC(Nc3ncnc4[nH]ccc34)CC2)cc1` [Compound C-179, N-(1-(2-(4-(difluoromethyl)phenyl)-2,2-difluoroethyl)piperidin-4-yl)-7H-pyrrolo[2,3-d]pyrimidin-4-amine], for which the negative-log IC50 (pIC50) in series [2] was 5.31; in series [3] (setting [9]) it was below 5.00.

Turning to `Cc1ccc(C(F)(F)CN2CCC(Nc3ncnc4[nH]ccc34)CC2)cn1` [Compound C-128, N-(1-(2,2-difluoro-2-(6-methylpyridin-3-yl)ethyl)piperidin-4-yl)-7H-pyrrolo-[2,3-d]pyrimidin-4-amine], the pIC50 in series [1] (read-out: NR2B IC50) was 7.05; in series [1] (read-out: hNR2B IC50), 7.05; in series [3], below 5.00; in series [4], 4.55.

Regarding `Fc1ccc(C(F)(F)CN2CCC(Nc3ncnc4[nH]ccc34)CC2)nc1` [Compound C-2, N-(1-(2,2-difluoro-2-(5-fluoropyridin-2-yl)ethyl)piperidin-4-yl)-7H-pyrrolo[2,3-d]-pyrimidin-4-amine], the values for the pIC50 in series [1] (read-out: NR2B IC50) and in series [3] were 6.91 and below 5.00, respectively.

Turning to `Cc1cnc(C(F)(F)CN2CCC(Nc3ncnc4[nH]ccc34)CC2)cn1` [Compound C-230, N-(1-(2,2-difluoro-2-(5-methylpyrazin-2-yl)ethyl)piperidin-4-yl)-7H-pyrrolo[2,3-d]pyrimidin-4-amine], the pIC50 in series [1] (read-out: NR2B IC50) was 7.06; in series [1] (read-out: hNR2B IC50) it was 7.06; in series [3], below 5.00; in series [4] it was 4.86.

Consider `Fc1cc(C(F)(F)F)cnc1C(F)(F)CN1CCC(Nc2ncnc3[nH]ccc23)CC1` [Compound C-18, N-(1-(2,2-difluoro-2-(3-fluoro-5-(trifluoromethyl)pyridin-2-yl)-ethyl)piperidin-4-yl)-7H-pyrrolo[2,3-d]pyrimidin-4-amine], for which the negative-log IC50 (pIC50) in series [1] (setting [7]) is 7.08.
